Data published in ChEMBL document CHEMBL5579845, “Ophiobolin A derivatives with enhanced activities under tumor-relevant acidic conditions” (2024).

Columns and labels:
[1] = Antiproliferative activity against human GBM43 cells cultured under pH 6.5 assessed as reduction in cell viability by measuring growth inhibition incubated for 48 hrs by MTT assay; type: functional
[2] = Antiproliferative activity against human GBM43 cells cultured under pH 7.5 assessed as reduction in cell viability by measuring growth inhibition incubated for 48 hrs by MTT assay; type: functional
[3] = Potency index, ratio of ophiobolin A GI50 to test compound GI50 for antiproliferative activity against human GBM43 cells cultured under pH 6.5 assessed as reduction in cell viability by measuring growth inhibition incubated for 48 hrs by MTT assay; type: functional
U-87 MG = assay: Antitumor activity against human U-87 MG cells stably expressing luciferase reporter xenografted in female athymic nude mouse assessed as median survival time at 24 mg/kg, iv administered for six times starting from day 12 post tumor development and measured upto 60 days post tumor development; type: functional, U-87MG ATCC; settings: time <= 48 day

Row | SMILES | GI50 [1] [nM] | GI50 [2] [nM] | RatioGI50 [3] | MST (U-87 MG) [days]
1 | CC(C)=C[C@H]1C[C@H](C)[C@]2(CC[C@]3(C)C[C@H]4[C@H](C(=O)C[C@@]4(C)O)/C(=C/OCCF)[C@H](O)C[C@H]32)O1 | 1500 | 2770 |  | 
2 | CC(C)=C[C@H]1C[C@H](C)[C@]2(CC[C@]3(C)C[C@H]4[C@H](C(=O)C[C@@]4(C)O)/C(C(O)OCCF)=C\C[C@H]32)O1 (some centres not stated) | 1700 | 2890 |  | 
3 | COCCOC(O)/C1=C/C[C@@H]2[C@](C)(CC[C@@]23O[C@@H](C=C(C)C)C[C@@H]3C)C[C@H]2[C@@H]1C(=O)C[C@@]2(C)O (some centres not stated) | 1090 |  |  | 
4 | CO[C@H]1O[C@@]2(OC)C[C@@](C)(O)[C@H]3C[C@@]4(C)CC[C@@]5(O[C@@H](C=C(C)C)C[C@@H]5C)[C@@H]4C/C=C/1[C@H]32 | 500 |  |  | 
5 | CC(C)=C[C@H]1C[C@H](C)[C@]2(CC[C@]3(C)C[C@H]4[C@H](C(=O)C[C@@]4(C)O)/C(C(O)OCCCl)=C\C[C@H]32)O1 (some centres not stated) | 750 | 2770 |  | 
6 | CC(C)=C[C@H]1C[C@H](C)[C@]2(CC[C@]3(C)C[C@H]4[C@H](C(=O)C[C@@]4(C)O)/C(=C/OCCBr)[C@H](O)C[C@H]32)O1 | 140 | 490 | 2 | 
7 | CC(C)=C[C@H]1C[C@H](C)[C@]2(CC[C@]3(C)C[C@H]4[C@H](C(=O)C[C@@]4(C)O)/C(C(O)OC(C)C)=C\C[C@H]32)O1 (some centres not stated) | 340 |  |  | 
8 | CO[C@@H]1O[C@@]2(OC)C[C@@](C)(O)[C@H]3C[C@@]4(C)CC[C@@]5(O[C@@H](C=C(C)C)C[C@@H]5C)[C@@H]4C/C=C/1[C@H]32 | 1460 |  |  | 
9 | CC(C)=C[C@H]1C[C@H](C)[C@]2(CC[C@]3(C)C[C@H]4[C@H](C(=O)C[C@@]4(C)O)/C(=C/OCCCl)[C@H](O)C[C@H]32)O1 | 650 | 1070 |  | 
10 | COc1cccc2c1C(=O)c1c(O)c3c(c(O)c1C2=O)C[C@@](O)(/C(CO)=N/NC(=O)CCCCCN1C(=O)C=CC1=O)C[C@@H]3O[C@H]1C[C@H](N)[C@H](O)[C@H](C)O1 [ALDOXORUBICIN] |  |  |  | 62
11 | CC(C)=C[C@H]1C[C@H](C)[C@]2(CC[C@]3(C)C[C@H]4[C@H](C(=O)C[C@@]4(C)O)/C(=C/OCC(F)(F)F)[C@H](O)C[C@H]32)O1 | 830 |  |  | 
12 | CC(C)=C[C@H]1C[C@H](C)[C@]2(CC[C@]3(C)C[C@H]4[C@H](C(=O)C[C@@]4(C)O)/C(C(O)OCCBr)=C\C[C@H]32)O1 (some centres not stated) | 150 | 270 | 2 | 
13 | CC(C)=C[C@H]1C[C@H](C)[C@]2(CC[C@]3(C)C[C@H]4[C@H](C(=O)C[C@@]4(C)O)/C(C=O)=C\C[C@H]32)O1 [OPHIOBOLIN A] | 290 | 220 |  | 
